In US20080221158A1, “Novel 14 and 15 Membered Ring Compounds” (PLIVA - Istrazivacki Institut d.o.o, priority 2003, published 2008):

Columns and labels:
Experiment in all cases: MIC against various organisms (broth dilution)
Assay type in all cases: cell-based
S. pneumoniae SP030 = conditions: Streptococcus pneumoniae
Experimental: (§1) Using a standard broth dilution method in microtitre, compounds were tested for antibacterial activity. The compounds in the above examples gave minimum inhibitory concentrations (MICS) less than 1 microgram per millilitre against erythromycin-sensitive and erythromycin-resistant strains of Streptococcus pneumoniae and Streptococcus pyogenes.
(§2) In addition, the MIC (1 μg/mL) of test compounds against various organisms was determined including:
(§3) S. aureus Smith ATCC 13709, S. pnetnioniae SP030, S. pyogenes 3565, E. faecalis ATCC 29212, H. influenza ATCC 49247, M. catarrhalis ATCC 23246.

E. faecalis ATCC 29212 = conditions: Enterococcus faecalis, ATCC29212
Experimental: as §1, §2, §3

H. influenzae ATCC 49247 = conditions: Haemophilus influenzae, ATCC49247
Experimental: as §1, §2, §3

[1] = test system: M. catarrhalis ATCC 23246; conditions: Moraxella catarrhalis, ATCC23246
Experimental: as §1, §2, §3

S. pyogenes 3565 = conditions: Streptococcus pyogenes
Experimental: as §1, §2, §3

[2] = test system: S. aureus Smith ATCC 13709; conditions: Staphylococcus aureus, ATCC13709
Experimental: as §1, §2, §3

Compound | MIC (S. pneumoniae SP030) [µg/mL] | MIC (E. faecalis ATCC 29212) [µg/mL] | MIC (H. influenzae ATCC 49247) [µg/mL] | MIC [1] [µg/mL] | MIC (S. pyogenes 3565) [µg/mL] | MIC [2] [µg/mL]
CC[C@H]1OC(=O)[C@H](C)[C@@H](O[C@H]2C[C@@](O)(OC)[C@@H](NC(=O)CCOCCNc3cc4c(=O)c(C(=O)O)cn(C5CC5)c4cc3Cl)[C@H](C)O2)[C@H](C)[C@@H](OC2O[C@H](C)C[C@H](N(C)C)[C@H]2O)[C@](C)(O)C[C@@H](C)CN(C)[C@H](C)[C@@H](O)[C@]1(C)O (stereo partly drawn) [Example 1] | < 1 | < 1 | < 2 | < 2 | < 1 | < 1
CC[C@@H]1OC(=O)[C@H](C)[C@H](O[C@@H]2C[C@@](O)(OC)[C@@H](NC(=O)CCOCCOc3cc4c(=O)c(C(=O)O)cn(C5CC5)c4cc3Cl)[C@H](C)O2)[C@@H](C)[C@H](O[C@@H]2O[C@H](C)C[C@H](N(C)C)[C@@H]2O)[C@](C)(O)C[C@H](C)CN(C)[C@H](C)[C@@H](O)[C@]1(C)O [Example 3, 4″-(S)-(3-[2-(3-Carboxy-7-chloro-1-cyclopropyl-4-oxo-1,4-dihydro-quinolin-6-yloxy)ethoxy]-propionylamino]-4″-deoxyazithromycin] | < 1 | < 1 | < 2 | < 2 | < 1 | < 1
CC[C@H]1OC(=O)[C@H](C)[C@@H](O[C@H]2C[C@@](O)(OC)[C@@H](NC(=O)CCOCCNc3cc4c(=O)c(C(=O)O)cn(C5CC5)c4cc3Cl)[C@H](C)O2)[C@H](C)[C@@H](O[C@@H]2O[C@H](C)C[C@H](N(C)C)[C@H]2O)[C@](C)(O)C[C@@H](C)CN(C)[C@H](C)[C@@H](O)[C@]1(C)O [Example 2] | < 1 | < 1 | < 2 | < 2 | < 1 | < 1
